Laboratory results: US20090155785A1, “REAL-TIME COLORIMETRIC SCREENING INHIBITORS OF ENDONUCLEASE WITH GOLD NANOPARTICLE SUBSTRATE” (NORTHWESTERN UNIVERSITY, priority 2007, published 2009)

Assays:
[1] = system: duplex DNA; assay: Melting temperature of duplex DNA (without nanoparticles) in the presence of DNA binding molecule; details: DNA duplex 2.0 μM, sodium phosphate buffer 10 mM pH 7.0, NaCl 100 mM, DNA binding molecule 5.0 μM, control 61.0
[2] = system: DNase I; assay: Colorimetric DNase I inhibition assay, hybridized gold nanoparticle aggregates without linker oligonucleotide (Example 1); assay type: biochemical; details: inhibitor 1 μM, DNase I 15 units/ml, extinction at 520 nm, room temperature; control 6.8 min
Description: In addition to screening enzyme activity, one can easily use the assay to evaluate the efficiency of inhibitors of DNase I. In a typical screening experiment, DNase I (15 units/ml) was added to solutions of the DNA-linked gold nanoparticle aggregates in the presence of one of the following DNA binding molecules: amsacrine (AMSA), anthraquinone-2-carboxylic acid (AQ2A), 9-aminoacridine (9-AA), ellipticine (EIPT), daunorubicin (DNR), ethidium bromide (EB) and 4′,6-diamidedino-2-phenylindole (DAPI) (1 μM), respectively. These DNA binding molecules are known to inhibit DNase I. (See R. A. Ikeda, P. B. Dervan, J. Am. Chem. Soc., 104: 296 (1982); S. M. Forrow, M. Lee, R. L. Souhami, J. A. Hartley, Chem. Biol. Interact., 96: 125 (1995); P. G. Baraldi, A. Bovero, F. Fruttarolo, D. Preti, M. A. Tabrizi, M. G. Pavani, R. Romagnoli, Med. Res. Rev., 24: 475 (2004)). Extinction was monitored at 520 nm as a function of time (sample scan rate=5 min^−), and the color of the solution was followed with the naked eye. The time at which 50% of the aggregate is hydrolyzed (TH) can be used as a measure of inhibition (FIG. 6). The inhibitors decrease DNase I activity and increase the TH and, therefore, the corresponding time required for a color change in the solution. […] The trend is determined based on TH, which is consistent with the relative binding affinities of the inhibitors to DNA, as determined by measuring the melting temperature of the duplex DNA in the presence of each DNA-binding molecule (FIG. 6 and Table 1 below).
The relative binding affinities of the inhibitors to DNA are consistent with the hydrolysis time (TH) of the aggregates by DNase I in the presence of a specific inhibitor. TH is determined by measuring the extinction at 520 nm and determining when half of the particles composing the aggregates have been released.
AuNP-1 and AuNP-2 were functionalized with 3′-thiol-modified 30-mer oligonucleotides (AuNP-1, DNA-1 sequence: 5′-[…]-A10-SH-3′, SEQ ID NO: 1; AuNP-2, DNA-2 sequence: 5′-[…]-A10-SH-3′, SEQ ID NO:2) using previously reported methods. (See J. J. Storhoff, R. Elghanian, R. C. Mucic, C. A. Mirkin, R. L. Letsinger, J. Am. Chem. Soc., 120: 1959 (1998)). After combining 1 ml aliquots of the two probes, AuNP-1 and AuNP-2 (each at 3 nM), in hybridization buffer (50 mM Tris-HCl buffer pH 7.0, 2 mM MgCl2), the mixture was heated to 90° C. and held at this temperature for 10 minutes.
The pre-prepared gold nanoparticle aggregates were washed (3 times) with DNase I buffer (10 mM sodium phosphate buffer pH 7.0, 0.75 mM MgCl2). They were then resuspended in 1 ml of DNase I buffer. A 10 μL aliquot of each of the endonuclease inhibitors (0.1 mM) was then added to a 1 ml solution of the aggregates, respectively, and incubated for 10 minutes. The assay was initiated by adding DNase I, and the hydrolysis kinetics were monitored by UV-vis spectroscopy (Cary 5000, Varian). The solution was continuously stirred with a magnetic stir bar at room temperature to keep the aggregates suspended.

[3] = system: DNase I; assay: Colorimetric DNase I inhibition assay, ligated gold nanoparticle aggregates with linker oligonucleotide (Example 2); assay type: biochemical; details: for t (releasing time; time required to hydrolyze 50% of the aggregates): inhibitor 1 μM, DNase I 15 units/ml, extinction at 520 nm, ligated aggregates, control 9.5 min
Description: A typical screening experiment was slated by adding the DNase I to solutions of the gold nanoparticle aggregates in the presence of one of the DNA binding molecules, amsacrine (AMSA), anthrquinone-2-carboxylic acid (AQ2A), 9-aminoacridine (9-AA), ellipticine (EIPT), daunorubicin (DNR), ethidium bromide (EB) and 4′,6-diamidedino-2-phenylindole (DAPI) (1 μM), respectively. The color changes of the solutions were monitored at 520 nm by UV-vis spectrometry over time (sample scan rate=2 min^−1). The inhibitors can decrease DNase I activity and increase the hydrolysis time and the corresponding time required for a color change in the solution. Thus, we could determine the relative activities of different endonuclease inhibitors by measuring the time required to hydrolyze 50% of the aggregates (t). […] The hydrolysis time is consistent with relative binding affinities of inhibitors to DNA by determining the melting temperature (Tm) of duplex DNA at 260 nm in the presence of each DNA-binding molecule.
High-throughput screening is widely used for the identification of hit compounds from combinatorial libraries. (See P. A. Johnston, P. A. Johnston, Drug Discovery Today, 7: 353 (2002); D. L. Boger, J. Deshamais, K. Capps, Angew. Chem. Int. Ed., 42: 4138 (2003); S. Wang, T. B. Sim, Y.-S. Kim, Y.-T. Chang, Cum Opin. Cham. Biol., 8: 371 (2004)). We have examined the application of the gold nanoparticle aggregates for high throughput screening of endonuclease inhibitors by visual inspection. […] Thus, we can determine potencies of inhibitor using color change as a function of time. […] The trend of potencies of inhibitors was determined to be DAPI>EB>DNR>9-AA, EIPT, and AQ2A>AMSA, which is consistent with the control experiments involving serial analysis of each inhibitors with nanoparticle-free duplex DNA.
Two separate types of DNA-AuNPs were prepared by functionalizing 13 nm gold nanoparticles with two different thiol-modified oligonucleotide strands, AuNP-3 and AuNP-4. AuNP-3 was functionalized with 3′-hydroxyl-modified and 5′-thiol-modified 15-mer oligonucleotides (DNA-3 sequence: 5′-SH-A10-CGTTAGGACTTACGC-OH-3′, SEQ ID NO:3). DNA-3 is complementary to one-half of the 30-mer linker oligonucleotide (DNA-linker oligonucleotide sequence: 5′ […]-3′, SEQ ID NO:5). AuNP-4 was functionalized with 3′-thiolated and 5′-phosphorylated 15-mer oligonucleotides (DNA-4: 5′-PO4^3−-TTATAACTATTCCTA-A10-SH-3′, SEQ ID NO:4) that are complementary to the other half of the linker-oligonucleotide. After combining the three components, AuNP-3 and AuNP-4 (each at 3 nM) as well as the linker-oligonucleotides (3 μM), in the presence of ligation buffer (50 mM Tris-HCl buffer pH 7.5, 5 mM MgCl2, […], 0.05 mg/ml BSA, T4 DNA Ligase 4.000 units/ml), the DNAs assemble to form a three-strand DNA hybridization complex. First the linker-oligonucleotide acts as templates to co-align the 3′-hydroxyl group of the DNA-3 and the 5′-phosphate group of the DNA-4. Then the T4 DNA Ligase catalyzes the formation of a phosphodiester bond between the 3′-hydroxyl and the 5′-phosphate groups of DNA-3 and DNA-4, covalently joining DNA-3 and DNA-4 to form a 30-mer oligonucleotide. This method yield stable 30-base-pair double stranded links between the AuNPs. Since the nanoparticles aggregate, a red-to-purple color change can be observed.
The prepared gold nanoparticle aggregate was washed (3 times) with DNase I buffer (10 mM sodium phosphate buffer pH 7.0, 0.25 mM MgCl2). The assay was initiated by adding DNase I (10-50 units/ml) and the hydrolysis kinetics were monitored by a UV-vis spectrum at the extinction of 520 nm with stirring at room temperature.

SMILES | Tm (melting temperature of duplex DNA in the presence of endonuclease inhibitor) ([1]; Table 1) [°C] | Tm (melting temperature of duplex DNA in the presence of endonuclease inhibitor) ([1]; Table 2, at 260 nm) [°C] | TH (time at which 50% of the aggregate is hydrolyzed by DNase I) [2] [min] | t (releasing time; time required to hydrolyze 50% of the aggregates) [3] [min] | color change of aggregate solution by visual inspection after adding DNase I (FIG. 10) ([3]; visual inspection, purple to red as a function of reaction time, no or slow change indicates inhibition)
N=C(N)c1ccc(-c2cc3ccc(C(=N)N)cc3[nH]2)cc1 [DAPI, 4′,6-diamidedino-2-phenylindole] | 77.0 | 77.0 | 101.2 | >1440 | remains light purple throughout the examination time
COc1cccc2c1C(=O)c1c(O)c3c(c(O)c1C2=O)C[C@@](O)(C(C)=O)C[C@@H]3O[C@H]1C[C@H](N)[C@H](O)[C@H](C)O1 [DNR, daunorubicin] | 65.5 | 65.5 | 43.2 | 31.5 | –
Cc1c2ccncc2c(C)c2c1[nH]c1ccccc12 [EIPT, ellipticine] | 63.0 | 63.0 | 25.2 | 15.0 | –
O=C(O)c1ccc2c(c1)C(=O)c1ccccc1C2=O [AQ2A, anthraquinone-2-carboxylic acid] | 62.5 | 62.5 | 19.6 | 14.5 | –
Nc1c2ccccc2nc2ccccc12 [9-AA, 9-aminoacridine] | 62.5 | 62.5 | 24.6 | 16.0 | –
